In patent publication US10076519B2 (CYTOKINETICS, INC., priority 2010, dated 2018):

These compounds were tested on rabbit skeletal myofibrils (fast skeletal myofibrils) (assay: Activation of fast skeletal myofibrils (PUMA assay, PK/LDH-coupled ATPase at pCa25)). Details: AC1.4 determined according to the procedure of Example 39; reported as class symbols.
Type: biochemical
Procedure, shortened: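 Detergent-washed rabbit psoas myofibrils (~90% fast fibres, calcium-regulated) assayed at calcium giving 25% of maximal ATPase rate (pCa25). ADP turnover coupled via pyruvate kinase/lactate dehydrogenase to NADH oxidation, read at 340 nm. Buffer 12 mM PIPES, 2 mM MgCl2, 1 mM DTT, pH 6.8; AC1.4 values derived.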

Mean AC1.4	SMILES
B (B=1-10 uM)	CC(C)(CNc1ccc(-c2cccc(CN)c2)nn1)c1ccc(F)cc1 [{6-[3-(aminomethyl)phenyl]pyridazin-3-yl}[2-(4-fluorophenyl)-2-methylpropyl]amine]
D (D=>20 uM)	CC(C)(CNc1ccc(C(=O)N2CCC2C(N)=O)nn1)c1ccc(F)cc1 (stereo not shown) [1-[(6-{[2-(4-fluorophenyl)-2-methylpropyl]amino}pyridazin-3-yl)carbonyl]azetidine-2-carboxamide]
B (B=1-10 uM)	CC(C)(CNc1ccc(-c2cncc(C(N)=O)c2)nn1)c1ccccc1Cl [5-(6-{[2-(2-chlorophenyl)-2-methylpropyl]amino}pyridazin-3-yl)pyridine-3-carboxamide]
A (A=<1 uM)	Nc1n[nH]c2ccc(-c3ccc(NCC4(c5ccccc5F)CCCC4)nn3)cc12 [[6-(3-amino(1H-indazol-5-yl))pyridazin-3-yl]{[(2-fluorophenyl)cyclopentyl]meth-yl}amine]
B (B=1-10 uM)	CC(C)(CNc1ccc(-c2ccc(F)cc2)nn1)c1ccc(F)cc1 [[2-(4-fluorophenyl)-2-methylpropyl][6-(4-fluorophenyl)pyridazin-3-yl]amine]
D (D=>20 uM)	CC(=O)c1ccc(NCC(C)(C)c2ccc(F)cc2)nn1 [1-(6-{[2-(4-fluorophenyl)-2-methylpropyl]amino}pyridazin-3-yl)ethan-1-one]
A (A=<1 uM)	CC(C)(CNc1ccc(-c2ccccc2)nn1)c1ccc(F)cc1 [[2-(4-fluorophenyl)-2-methylpropyl](6-phenylpyridazin-3-yl)amine]
A (A=<1 uM)	NS(=O)(=O)c1cccc(-c2ccc(NCC3(c4ncccc4F)CCC3)nn2)c1
B (B=1-10 uM)	N=C(N)Nc1cccc(-c2ccc(NCC3(c4ncccc4F)CCC3)nn2)c1
D (D=>20 uM)	NC(=O)c1cccc(-c2ccc(NCC3(c4ccc(F)cc4)COC3)nn2)c1 [3-[6-({[3-(4-fluorophenyl)oxetan-3-yl]methyl}amino)pyridazin-3-yl]benzamide]
B (B=1-10 uM)	CC(=O)Nc1cccc(-c2ccc(NCC3(c4ncccc4F)CCC3)nn2)c1
D (D=>20 uM)	NC(=O)c1cccc(-c2ccc(NCC3(c4cccc(C(N)=O)n4)CCC3)nn2)c1
A (A=<1 uM)	CC(C)(CNc1ccc(-c2ccc3c(N)n[nH]c3c2)nn1)c1ccc(F)cc1 [[6-(3-amino(1H-indazol-6-yl))pyridazin-3-yl][2-(4-fluorophenyl)-2-methylpropyl]amine]
A (A=<1 uM)	CC(C)(CNc1ccc(-c2ccc3[nH]nc(N)c3c2)nn1)c1ccc(F)cc1 [[6-(3-amino(1H-indazol-5-yl))pyridazin-3-yl][2-(4-fluorophenyl)-2-methylpropyl]amine]
A (A=<1 uM)	CC(C)(CNc1ccc(-c2cccc(N)c2)nn1)c1ccc(F)cc1 [[6-(3-aminophenyl)pyridazin-3-yl][2-(4-fluorophenyl)-2-methylpropyl]amine]
D (D=>20 uM)	NC(=O)c1cccc(-c2ccc(NCC3(c4ncccc4F)CNC3)nn2)c1 [3-[6-({[3-(3-fluoro-2-pyridyl)azetidin-3-yl]methyl}amino)pyridazin-3-yl]benzamide]
D (D=>20 uM)	CC(C)(CNc1ccc(-c2nnn[nH]2)nn1)c1ccc(F)cc1 [(6-(1H-1,2,3,4-tetraazol-5-yl)pyridazin-3-yl)[2-(4-fluorophenyl)-2-methylpropyl]amine]
A (A=<1 uM)	Nc1n[nH]c2ccc(-c3ccc(NCC4(c5ccccc5F)CC4)nn3)cc12 [[6-(3-amino(1H-indazol-5-yl))pyridazin-3-yl]{[(2-fluorophenyl)cyclopropyl]meth-yl}amine]

Same assay, conditions: median AC1.4 class, procedure of Example 39

Mean AC1.4	SMILES
B (B=1-10 uM)	NCc1ccc(-c2ccc(NCC3(c4ncccc4F)CCC3)nn2)cc1 [{6-[4-(aminomethyl)phenyl]pyridazin-3-yl}{[(3-fluoro(2-pyridyl))cyclobutyl]methyl}amine]
A (A=<1 uM)	CNC(=O)Nc1ccc(-c2ccc(NCC3(c4ncccc4F)CCC3)nn2)cc1
D (D=>20 uM)	NC(=O)c1cccc(-c2ccc(NC3(c4nccs4)CCC3)nn2)c1 [3-{6-[(1,3-thiazol-2-ylcyclobutyl)amino]pyridazin-3-yl}benzamide]
B (B=1-10 uM)	CS(=O)(=O)NCc1cnc(-c2ccc(NCC3(c4ncccc4F)CCC3)nn2)s1 [({2-[6-({[(3-fluoro(2-pyridyl))cyclobutyl]methyl}ami-no)pyridazin-3-yl](1,3-thiazol-5-yl)}methyl)(methylsulfonyl)amine]
D (D=>20 uM)	NC(=O)c1cccc(-c2ccc(NC(=O)c3ccccc3)nn2)c1 [3-[6-(phenylcarbonylamino)pyridazin-3-yl]benzamide]
D (D=>20 uM)	N#Cc1ccc(C2(Nc3ccc(-c4cc(C(N)=O)ccc4F)nn3)CCC2)nc1
B (B=1-10 uM)	O=c1[nH]c(-c2cnc(-c3ccc(NCC4(c5ncccc5F)CCC4)nn3)s2)no1 [3-{2-[6-({[(3-fluoro-2-pyridyl)cyclobutyl]methyl}ami-no)pyridazin-3-yl]-1,3-thiazol-5-yl}-1,2,4-oxadiazolin-5-one]
D (D=>20 uM)	NC(=O)c1cccc(-c2ccc(NC3(c4ccccn4)CCC3)nn2)c1 [3-{6-[(2-pyridylcyclobutyl)amino]pyridazin-3-yl}benzamide]
A (A=<1 uM)	NC(=O)c1cccc(-c2ccc(NC3(c4ccc(F)cc4)CCC3)nn2)c1
D (D=>20 uM)	CS(=O)(=O)Nc1ncc(-c2ccc(NCC3(c4ncccc4F)CCC3)nn2)cn1
A (A=<1 uM)	NC(=O)c1csc2nc(-c3ccc(NCC4(c5ncccc5F)CCC4)nn3)cn12 [6-[6-({[(3-fluoro-2-pyridyl)cyclobutyl]methyl}ami-no)pyridazin-3-yl]imidazo[2,1-b]1,3-thiazoline-3-carboxamide]
A (A=<1 uM)	O=C(NC[C@H](O)CO)c1cnc(-c2ccc(NCC3(c4ncccc4F)CCC3)nn2)s1 [N-((2S)-2,3-dihydroxypropyl){2-[6-({[(3-fluoro(2-pyridyl))cyclobutyl]methyl}ami-no)pyridazin-3-yl](1,3-thiazol-5-yl)}carboxamide]
A (A=<1 uM)	NC(=O)c1ccnc(-c2ccc(NCC3(c4ncccc4F)CCC3)nn2)n1 [2-[6-({[(3-fluoro-2-pyridyl)cyclobutyl]methyl}ami-no)pyridazin-3-yl]pyrimidine-4-carboxamide]
D (D=>20 uM)	CCOC(=O)c1ccc(NCC2(c3ncccc3F)CCC2)nn1
A (A=<1 uM)	O=C(NCc1cnc(-c2ccc(NCC3(c4ncccc4F)CCC3)nn2)s1)[C@@H]1CS(=O)(=O)CCN1 [((3R)-1,1-dioxo(1,4-thiazaperhydroin-3-yl))-N-({2-[6-({[(3-fluoro(2-pyridyl))cyclobutyl]methyl}ami-no)pyridazin-3-yl](1,3-thiazol-5-yl)}methyl)carboxamide]

Same assay, conditions: median AC1.4 reported as class; procedure of Example 39

Mean AC1.4	SMILES
B (B=1-10 uM)	O=C(N[C@@H]1CS(=O)(=O)C[C@H]1O)c1cccc(-c2ccc(NC[C@]3(c4ncccc4F)C[C@H](F)C3)nn2)c1 [N-((3S,4S)-4-hydroxy-1,1-dioxothiolan-3-yl){3-[6-({[3-fluoro-1-(3-fluoro(2-pyridyl))cyclobutyl]methyl}ami-no)pyridazin-3-yl]phenyl}carboxamide]
A (A=<1 uM)	NC1(C(=O)NCc2cnc(-c3ccc(NCC4(c5ncccc5F)CCC4)nn3)s2)COC1 [(3-aminooxetan-3-yl)-N-({2-[6-({[(3-fluoro(2-pyridyl))cyclobutyl]methyl}ami-no)pyridazin-3-yl](1,3-thiazol-5-yl)}methyl)carboxamide]
D (D=>20 uM)	O=C1CC[C@@H](NC(=O)c2ccc(NCC3(c4ncccc4F)CCC3)nn2)CN1 [N-((3R)-6-oxo(3-piperidyl))[6-({[(3-fluoro(2-pyridyl))cyclobutyl]methyl}ami-no)pyridazin-3-yl]carboxamide]
B (B=1-10 uM)	CN(C)C(=O)c1cc(-c2ccc(NC[C@]3(c4ncccc4F)C[C@H](F)C3)nn2)ccc1O [{5-[6-({[3-fluoro-1-(3-fluoro(2-pyridyl))cyclobutyl]methyl}ami-no)pyridazin-3-yl]-2-hydroxyphenyl}-N,N-dimethylcarboxamide]
A (A=<1 uM)	CCOC(=O)Cc1csc(NC(=O)c2ccc(NCC3(c4ncccc4F)CCC3)nn2)n1 [ethyl 2-(2-{[6-({[(3-fluoro-2-pyridyl)cyclobutyl]methyl}ami-no)pyridazin-3-yl]carbonylamino}-1,3-thiazol-4-yl)acetate]
B (B=1-10 uM)	CS(=O)(=O)N1CC(NC(=O)c2cccc(-c3ccc(NC[C@]4(c5ncccc5F)C[C@H](F)C4)nn3)c2)C1 [{3-[6-({[3-fluoro-1-(3-fluoro(2-pyridyl))cyclobutyl]methyl}ami-no)pyridazin-3-yl]phenyl}-N-[1-(methylsulfonyl)azetidin-3-yl]carboxamide]
B (B=1-10 uM)	O=C(N[C@@H]1CCOC1)c1cccc(-c2ccc(NC[C@]3(c4ncccc4F)C[C@H](F)C3)nn2)c1 [N-((3R)oxolan-3-yl){3-[6-({[3-fluoro-1-(3-fluoro(2-pyridyl))cyclobutyl]methyl}ami-no)pyridazin-3-yl]phenyl}carboxamide]
B (B=1-10 uM)	CC(=O)NCc1ncc(-c2ccc(NCC3(c4ncccc4F)CCC3)nn2)s1 [N-({5-[6-({[(3-fluoro-2-pyridyl)cyclobutyl]methyl}ami-no)pyridazin-3-yl]-1,3-thiazol-2-yl}methyl)acetamide]
B (B=1-10 uM)	Cc1cc(NCC2(c3ncccc3F)CCC2)nnc1-c1ncc(CC(N)=O)s1 [2-{2-[6-({[(3-fluoro(2-pyridyl))cyclobutyl]methyl}amino)-4-methylpyridazin-3-yl]-1,3-thiazol-5-yl}acetamide]
D (D=>20 uM)	NC(=O)c1ccc(NCC2(c3ncccc3F)CCC2)nn1 [6-({[(3-fluoro-2-pyridyl)cyclobutyl]methyl}ami-no)pyridazine-3-carboxamide]
